From patent publication US9777014B2, “Tetrahydro-2H-pyrano[3,2-C]isochromene-6-ones and analogs for the treatment of inflammatory disorders” (Council of Scientific & Industrial Research, priority 2013, dated 2017)
pIC50: −log10 of the molar value. “Also recorded” adds a separate entry of the source.

Key:
[1] = test system: IL-1β; test: IL-1β production in stimulated splenocytes; assay type: cell-based; settings: at low micromolar to nanomolar concentrations
[2] = test system: TNF-α; test: TNF-α in cell supernatant of macrophages, ex vivo LPS-induced model; set-up: species or system Balb/c mice
Excerpt: (§1) Macrophages are the main source of cytokines in inflammation. Lipopolysaccharides LPS may stimulate macrophages to produce large quantities of proinflammatory cytokines that promote inflammation. In this study, we investigated the effect of compounds 1-3 on the expression and secretion of cytokines (TNF-α/IL-6) in vivo in cell supernatant and serum. For this study, male Balb/c mice (5-6 weeks of age) were maintained under pathogen-free conditions in an animal housing unit in a temperature-controlled (23±2° C.) and light-controlled (12 h light/dark cycle) room. Animals were provided standard rodent chow and water ad libitum. Female Balb/C mice (8-10 weeks) were obtained from animal house, 3 or 4 per cage with a 12 h light/dark cycle, provided standard water ad libitum, and acclimated to their environment at least a week before the start of experiments. One hour prior to the start of each experiment, feed and water were removed from the cages. Mice were treated with 10 mg/kg and 100 mg/kg of compounds 1-3 orally over a period of 5 days. LPS 10 μg/ml was injected and blood as well macrophages were collected. The dose was selected based on in vitro result.
(§2) Ex vivo determination of TNF-α, IL-6 & IL-1β in cell supernatant: Blood for serum cytokines production was collected from each treated and untreated animals before the collection of macrophages from peritoneal cavity. Cells were seeded in 96-well plates at 5×10^5 cells mL^−1. Cells were then stimulated with 1 μg mL^−1 LPS for 4 hrs. The cell supernatant was stored at −80° C. The production of TNF-α, IL-6, IL-1β and NO in macrophages cell supernatants of LPS-challenged mice were measured by commercial ELISA kits (B. D. Pharmingenin; R&D systems, Inc., Minneapolis, Minn., USA) and cytokine concentration was determined (J. Am. College Nutr. 2004, 23, 71-78).

[3] = test system: IL-4; test: IL-4 production in stimulated splenocytes; assay type: cell-based; settings: at low micromolar to nanomolar concentrations
[4] = test system: IL-6; test: IL-6 in serum, in-vivo LPS-induced model; set-up: species or system Balb/c mice
Excerpt: as §1
(§3) Measurement of in vivo serum levels of TNF-α and IL-6: The mice were divided into 4 groups: no treatment group, injected with phosphate buffered saline (PBS); LPS only; LPS+Dexamethasone (0.05 μg/ml); or LPS+compound 1 at 10 and 100 μM doses (n=6 for each group). Groups were pretreated orally with 200 μl of PBS, dexamethasone or compounds 1, 2, 3 for 45 min. Lipopolysaccharide (100 nM) was then administered (200 μL) i.p for treatment groups, and RPMI was administered i.p for the negative control group.
(§4) Ex vivo TNF-α and IL-6 determination by ELISA: Blood was allowed to clot overnight at 4° C. Serum was analyzed for IL-6, TNF-α, and IL-1β by ELISA. IL-6 analysis was performed using purified and biotin-conjugated rat anti-mouse IL-6 antibodies from PharMingen (San Diego, Calif.) as described previously. Streptavidin—peroxidase (Sigma) and 3,3′,5,5′-tetramethylbenzidine (TMB, Fluka, Ronkonkoma, N.Y.) were used for detection. Absorbance was read at 450 nm using a Vmax™ Kinetic Microplate Reader (Molecular Devices, Menlo Park, Calif.). For TNF-α analysis the OptEIA Set: Mouse TNF-α (Mono/Poly) kit was employed (PharMingen) (J. Immunol. Methods 1983, 65, 55-63).

[5] = test system: IL-6; test: IL-6 production in Con A/LPS stimulated splenocytes (ELISA); assay type: cell-based; settings: for pIC50: Splenocyte, splenocytes, Con A or LPS, 72 h, ELISA; for inhibition of IL-6 production (in words): at low micromolar to nanomolar concentrations
Experimental: (§5) Splenocytes were seeded into three to four wells of a 96-well flat-bottom microtiter plate (Nunc) at 2×10^6 cells/ml. Cells were incubated with different concentrations of compounds (0.1 μM-100 μM) along with Con A (2.5 μg/well) or LPS (1 μg/ml) for 72 h at 37° C. with 5% CO2 in CO2 incubator. The culture supernatants were harvested and the measurement of cytokines (TNF-α and IL-6) in the culture supernatants was carried out using commercial kits as per manufacturer's instructions by using ELISA kits (R&D, USA) (Life Sci. 2007, 80, 1525-1538; J. Immunol. Methods 1983, 65, 55-63).

[6] = test system: TNF-α; test: TNF-α in serum, in-vivo LPS-induced model; set-up: species or system Balb/c mice; settings: for TNF-α in serum: in-vivo LPS-induced model; for activity against TNF-α in in-vivo LPS model compared with bergenin (1): Table 3, serum
Excerpt: as §1, §3, §4

[7] = test system: T-cell; test: Effect on T-cell proliferation (Con-A stimulated spleen cells, MTT); assay type: cell-based; settings: for inhibition of T-cell proliferation (in words): 0.1 μM-100 μM tested; for pIC50: T-cell, Con-A stimulated spleen cells, 72 hrs, MTT
Experimental: Compounds provided in present invention were evaluated for their effect on T-cell proliferation. The protocol used for this bioassay is as follows: A single spleen cell suspension was prepared under sterile conditions and suspended in complete medium RPMI 1640 containing 10% Fetal calf serum (FCS). Spleenocytes were seeded into 4-5 wells of a 96-well flat bottom microtitre plate (Nunc) at (2×10^6 cells/ml). Thereafter, Concanavalin (Con-A) in the final concentration of 2.5 μg/well was added to stimulate T-cell, or LPS in the final concentration of 1 μg/ml was added to stimulate B-cell in the respective wells. Variable concentrations of compounds of the present invention (0.1 μM-100 μM) were added. Thereafter, the plates were incubated at 37° C. in 95% humidity at 5% CO2 in a CO2 incubator for 72 hrs. After 72 hours, 50 μl of MTT solution (5 mg/ml) was added to each well and the plates were incubated for 4 h. Thereafter, plates were centrifuged (400×g, 5 min.) and the untransformed MTT was removed. 200 μl of DMSO (192 μl with 8 μl 1N HCl) was added to each well, and the absorbance was determined in an ELISA reader at 570 nm after 15 min (Life Sci. 2007, 80, 1525-1538).

[8] = test system: TNF-α; test: TNF-α production in Con A/LPS stimulated splenocytes (ELISA); assay type: cell-based; settings: for pIC50: Splenocyte, splenocytes, Con A or LPS, 72 h, ELISA; for inhibition of TNF-α production (in words): at low micromolar to nanomolar concentrations
Experimental: as §5

[9] = test system: IL-6; test: IL-6 in cell supernatant of macrophages, ex vivo LPS-induced model; set-up: species or system Balb/c mice
Excerpt: as §1, §2

[10] = test system: nitric oxide (NO); test: Nitric oxide (NO) in serum, in-vivo LPS-induced model (Griess assay); set-up: species or system Balb/c mice
Excerpt: as §1, §3
NO determination by Griess assay: NO production was indirectly assessed by measuring the nitrite level in the cultured media and serum determined by a colorimetric method based on the griess reaction. The cells were incubated with cinnamic aldehyde, cinnamic alcohol, cinnamic acid, coumarin (0, 6.25, 12.5, 25, and 50 μM) in presence of LPS (100 ng/mL) at 37° C. for 24 h. Then, cells were dispensed into 96-well plates, and […] of each supernatant was mixed with the same volume of griess reagent (1% sulfanilamide, 0.1% naphthyl ethylenediamine dihydrochloride and 5% phosphoric acid) and incubated at room temperature for 10 min., the absorbance was measured at 540 nm with a Micro-Reader (Molecular Devices, Orleans Drive, Sunnyvale, Calif.). Serum samples were diluted four times with distilled water and deproteinized by adding 1/20 volume of zinc sulphate (300 g/L) to final concentration of 15 g/L. After centrifugation at 10,000×g for 5 min at room temperature, 100 μL supernatant was applied to a microtitre plate well, followed by 100 μL of Griess reagent. After 10 min of color development at room temperature, the absorbance was measured at 540 nm with a Micro-Reader. By using sodium nitrite to generatea standard curve, the concentration of nitrite was measured by absorbance at 540 nm (J. Ethnopharmacology, 2011, 135, 545-552).

Compound	inhibition of IL-1β production (in words) [1]	TNF-α in cell supernatant of macrophages ([2]; Dose 10 (μM as printed))	TNF-α in cell supernatant of macrophages ([2]; Dose 100 (μM as printed))	inhibition of IL-4 production (in words) [3]	IL-6 in serum ([4]; Dose 10 (μM as printed))	IL-6 in serum ([4]; Dose 100 (μM as printed))	pIC50 [5]	inhibition of IL-6 production (in words) [5]	TNF-α in serum ([6]; Dose 10 (μM as printed))	TNF-α in serum ([6]; Dose 100 (μM as printed))	activity against TNF-α in in-vivo LPS model compared with bergenin (1) [6]	inhibition of T-cell proliferation (in words) [7]	pIC50 [7]	pIC50 [8]	inhibition of TNF-α production (in words) [8]	IL-6 in cell supernatant of macrophages ([9]; Dose 10 (μM as printed))	IL-6 in cell supernatant of macrophages ([9]; Dose 100 (μM as printed))	NO in serum ([10]; Dose 10 (μM as printed))	NO in serum ([10]; Dose 100 (μM as printed))	further results
CCN(CC)Cc1c(O)c(OC)c(O)c2c1C(=O)OC1C2OC(CO)C(O)C1O (centres unmarked) [Compound 2, 7-((Diethylamino)methyl)-2,3,4,4a-tetrahydro-3,4,8,10-tetrahydroxy-2-(hydroxymethyl)-9-methoxypyrano[3,2-c]isochromen-6(10bH)-one]	most potent	102 ± 12^ pg/ml	89 ± 6.4 pg/mL	most potent	102 ± 40 ng/mL	275 ± 65 ng/mL	> 7.00	most potent	585 ± 192 pg/mL	388 ± 115 pg/mL	better activity than bergenin (1)	most potent	> 7.00	> 7.00	most potent	41.4 ± 8.9 ng/mL	17.3 ± 3.0 ng/mL	5.0 ± 0.80 µM	3.0 ± 0.73 µM	–
COc1c(O)c(CN2CCN(C)CC2)c2c(c1O)C1OC(CO)C(O)C(O)C1OC2=O (centres unmarked) [Compound 3, 2,3,4,4a-Tetrahydro-3,4,8,10-tetrahydroxy-2-(hydroxymethyl)-9-methoxy-7-((4-methylpiperazin-1-yl)methyl)pyrano[3,2-c]isochromen-6(10bH)-one]	most potent	78 ± 4.9 pg/mL	84 ± 6.7 pg/mL	most potent	282 ± 98 ng/mL	58 ± 12 ng/mL	> 7.00	most potent	672 ± 221 pg/mL	398 ± 62 pg/mL	better activity than bergenin (1)	most potent	5.21	> 7.00	most potent	12.1 ± 2.81 ng/mL	21.1 ± 3.2 ng/mL	2.87 ± 0.73 µM	1.24 ± 0.25 µM	–
COc1c(O)cc2c(c1O)[C@@H]1O[C@H](CO)[C@@H](O)[C@H](O)[C@H]1OC2=O [Compound 1, Bergenin, reference compound]	–	89 ± 6.1 pg/mL	78 ± 4.9 pg/mL	–	282 ± 98 ng/mL	55 ± 12 ng/mL	> 7.00	–	667 ± 208 pg/mL	509 ± 185 pg/mL	–	–	7.00	6.20	–	24.6 ± 6.9 ng/mL	53.5 ± 7.5 ng/mL	2.62 ± 0.62 µM	3.29 ± 0.88 µM	inhibition of IL-1β production (in words) ([1]; listed as Bergenin (1)): showed inhibition; also recorded: most potent; inhibition of IL-4 production (in words) ([3]; listed as Bergenin (1)): showed inhibition; also recorded: most potent; inhibition of IL-6 production (in words) ([5]; listed as Bergenin (1)): showed inhibition; also recorded: most potent; inhibition of T-cell proliferation (in words) ([7]; listed as Bergenin (1)): showed inhibition; also recorded: most potent; inhibition of TNF-α production (in words) ([8]; listed as Bergenin (1)): showed inhibition; also recorded: most potent
